US8008487B2, “Substituted thieno[2,3-D]pyrimidines as fungicides” (priority 2004, dated 2011)

Columns and labels:
Phytophthora infestans = assay: whole plant or invertebrate; assay type: in vivo; settings: Phytophthora infestans, in Solanum lycopersicum, foliar, 24 h, read-out: PHYTIN percent control of disease, 200 ppm on foliage, tomato, one-day protectant test
Colletotricum lagenarium = assay: Cucumber Anthracnose (COLLLA), whole-plant fungicide test; assay type: in vivo; settings: Cucumis sativus, foliar, 24 h, 200 ppm on foliage, one-day protectant test, read-out: COLLLA percent control of disease
Magnaporthe grisea = assay: whole plant or invertebrate; assay type: in vivo; settings: for pest or weed control at 200 ppm: Pyricularia oryzae, in Oryza sativa, foliar, 24 h, read-out: PYRIOR percent control of disease, 200 ppm on foliage, rice, one-day protectant test
Cochliobolus sativus = assay: Spot Blotch of Wheat (COCHSA), whole-plant fungicide test; assay type: in vivo; settings: Bipolaris sorokiniana, 24 h, one-day protectant test, read-out: COCHSA percent control of disease; for pest or weed control at 200 ppm: foliar, 200 ppm on foliage
Summary of the method: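 Percent control is derived from disease severity relative to untreated inoculated plants, scored 4–28 days later. Spore inoculation followed foliar spraying by one day (protectant) or preceded it by two days (curative); plants kept humid 1-2 days before greenhouse. Spray dose was 200 ppm, occasionally 100, 75 or 8.3 ppm, in acetone/Triton X100 water.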

Leptosphaeria nodorum = assay: Glume Blotch of Wheat (LEPTNO), whole-plant fungicide test; assay type: in vivo; settings: Parastagonospora nodorum, foliar, 24 h, 200 ppm on foliage, one-day protectant test, read-out: LEPTNO percent control of disease
Erysiphe cichoracaerum = assay: Cucumber Powdery Mildew (ERYSCI), whole-plant fungicide test; assay type: in vivo; settings: 200 ppm on foliage, one-day protectant test; for pest or weed control at 200 ppm: Erysiphe, foliar, 24 h, read-out: ERYSCI percent control of disease
[1] = test system: Puccinia recondita tritici; assay: Leaf Rust of Wheat (PUCCRT), whole-plant fungicide test; assay type: in vivo; settings: 200 ppm on foliage, one-day protectant test; for pest or weed control at 200 ppm: Puccinia recondita, foliar, 24 h, read-out: PUCCRT percent control of disease
Septoria tritici = assay: Speckled Leaf Blotch of Wheat (SEPTTR), whole-plant fungicide test; assay type: in vivo; settings: Zymoseptoria tritici, 24 h, one-day protectant test, read-out: SEPTTR percent control of disease; for pest or weed control at 200 ppm: foliar, 200 ppm on foliage
[2] = test system: Erysiphe graminis f. sp. tritici; assay: Powdery Mildew of Wheat (ERYSGT), whole-plant fungicide test; assay type: in vivo; settings: Blumeria graminis, 24 h, one-day protectant test, read-out: ERYSGT percent control of disease; for pest or weed control at 200 ppm: foliar, 200 ppm on foliage

SMILES	pest or weed control at 200 ppm (Phytophthora infestans) [%]	pest or weed control at 200 ppm (Colletotricum lagenarium) [%]	pest or weed control at 200 ppm (Magnaporthe grisea) [%]	pest or weed control at 100 ppm (Cochliobolus sativus; 100 ppm (footnote a)) [%]	pest or weed control at 200 ppm (Leptosphaeria nodorum) [%]	pest or weed control at 200 ppm (Erysiphe cichoracaerum) [%]	pest or weed control at 200 ppm [1] [%]	pest or weed control at 100 ppm (Septoria tritici; 100 ppm (footnote a)) [%]	pest or weed control at 100 ppm ([2]; 100 ppm (footnote a)) [%]	PYRIOR percent control of disease (Magnaporthe grisea; 200 ppm on foliage, rice, one-day protectant test)	pest or weed control at 200 ppm (Cochliobolus sativus) [%]	ERYSCI percent control of disease (Erysiphe cichoracaerum)	melting point [°C]	PUCCRT percent control of disease [1]	pest or weed control at 200 ppm (Septoria tritici) [%]	pest or weed control at 200 ppm [2] [%]
CC(Nc1ncnc2scc(Cl)c12)c1ccc(OCl)nc1 (stereo not drawn) [Compound 29]	80 to 100	0 to 49	80 to 100	0 to 49	80 to 100	80 to 100	80 to 100	50 to 79	80 to 100	–	–	–	–	–	–	–
OCC(Nc1ncnc2scc(Cl)c12)c1ccccc1 (stereo not drawn) [Compound 30]	0 to 49	0 to 49	–	–	0 to 49	–	–	–	–	*** (*** is 80-100 percent control of disease)	0 to 49	*** (*** is 80-100 percent control of disease)	120	*** (*** is 80-100 percent control of disease)	0 to 49	0 to 49
OCC(Cc1ccccc1)Nc1ncnc2scc(Cl)c12 (stereo not drawn) [Compound 31]	80 to 100	0 to 49	80 to 100	–	0 to 49	80 to 100	80 to 100	–	–	–	0 to 49	–	104 to 105	–	0 to 49	0 to 49
O[C@@H](CNc1ncnc2scc(Cl)c12)c1ccccc1 [Compound 32]	0 to 49	0 to 49	80 to 100	–	0 to 49	0 to 49	80 to 100	–	–	–	0 to 49	–	111 to 112	–	0 to 49	0 to 49
CC(C)c1ccc(C(C)Nc2ncnc3scc(Cl)c23)nc1 (stereo not drawn) [Compound 34]	0 to 49	50 to 79	80 to 100	–	80 to 100	80 to 100	80 to 100	–	–	–	0 to 49	–	–	–	50 to 79	80 to 100
CC(Nc1ncnc2scc(Cl)c12)c1ccc(OCc2ccccc2)cn1 (stereo not drawn) [Compound 35]	50 to 79	80 to 100	80 to 100	–	50 to 79	50 to 79	80 to 100	–	–	–	0 to 49	–	–	–	50 to 79	0 to 49
COc1cnc(C(C)Nc2ncnc3scc(Cl)c23)nc1 (stereo not drawn) [Compound 36]	80 to 100	0 to 49	80 to 100	–	0 to 49	0 to 49	80 to 100	–	–	–	0 to 49	–	–	–	50 to 79	0 to 49
